In brackets after ≈: the same amount, converted by molar mass.
What was measured:
[1] = system: Staphylococcus aureus; experiment: In vitro soap bacteriostatic test (agar dilution, spot inoculation, 35°, 48 hours); assay type: cell-based; details: for MIC: Staphylococcus aureus, without soap, read-out: Compound Activity Without Soap: minimum concentration where S. aureus growth is completely inhibited; for Compound Activity With Soap: minimum concentration where S. aureus growth is completely inhibited: ratio of soap to compound 100:1
Procedure: The antibacterial properties of the compounds prepared in Examples 1 - 14 were tested in soap. The in vitro soap bacteriostatic tests were conducted as follows: The compound is dissolved in a suitable solvent, usually dimethylformamide, to give a 6% solution. One-half ml. aliquot was added to 100 ml. of 3% solution of bar soap stock solution. The solid soap used was a neutral white toilet soap of the "LUX" type. The fatty acids in this soap were of the following composition: This yields an aqueous soap solution containing 30,000 mcg./ml. soap and 300 mcg./ml. compound. The soap/compound ratio in the latter is 100/l. A two-fold serial dilution series is prepared with this solution using sterile distilled water in test tubes such that the final volume in each tube is 2.0 ml. To each test tube is added 28 ml. of molten Dextrose Trypticase Extract Agar (B.B.L.). The tube contents were poured into sterile Petri plates and allowed to harden. The highest final concentration of compound in the serial dilution series is 20 mcg./ml. Plates were spot inoculated with a broth culture of Staphylococcus aureus and incubated at 35° for 48 hours. The lowest concentration completely inhibiting growth of the test organism, in mcg./ml. is recorded as the bacteriostatic concentration of the compound. Tests in the absence of soap are made in a similar manner except that all dilutions are made in solvent. The final concentration in the agar should not be greater than 5%. The results of these tests with the compounds of the present invention as compared with compounds having chemical structures closely related to the compounds of the present invention (designated by the symbol "C") are set forth in the Table. Column 1 contains the data as to the activity of the test solution without soap; column 2 refers to tests in which the ratio of soap to compound is 100:1. […] Growth is observed at the next lower concentration.

[2] = Solubility in alcohol and other solvents; assay type: physicochemical
[3] = in vivo; details: rat, determined in rats, oral toxicity
Description: For example, 4-chloro-3', 5'-di(trifluoromethyl)-benzanilide has an LD50 of […], determined in rats.

SMILES	MIC [1] [µg/mL]	solubility in alcohol solvents [2]	Compound Activity With Soap: minimum concentration where S. aureus growth is completely inhibited [1]	LD50 [3] [mg/kg]
O=C(Nc1ccc(Br)c(C(F)(F)F)c1)c1ccc(Br)cc1 [Compound 13, 4,4'-dibromo-α,α,α-trifluoro-m-benzotoluidide]	1.25 (≈ 2.95 µM)	soluble or fairly soluble	0.312 µg/mL	
O=C(Nc1cc(C(F)(F)F)cc(C(F)(F)F)c1)c1ccc(Cl)cc1 [Compound 19, 4-chloro-3',5'-di(trifluoromethyl)-benzanilide]	0.625 (≈ 1.7 µM)	soluble or fairly soluble	0.312 µg/mL	6000
O=C(Nc1cc(C(F)(F)F)cc(C(F)(F)F)c1)c1ccc(Br)cc1 [Compound 20, 4-bromo-α,α,α,α',α',α' -hexafluorobenzo-3',5'-xylidide]	0.312 (≈ 0.757 µM)	soluble or fairly soluble	0.312 µg/mL	
O=C(Nc1cc(C(F)(F)F)cc(C(F)(F)F)c1)c1cccc(C(F)(F)F)c1 [Compound C28]	> 10		B (Inactive at 10 mcg./ml. (highest concentration tested))	
O=C(Nc1cc(C(F)(F)F)cc(C(F)(F)F)c1)c1cccc(Br)c1 [Compound C29]	> 10		B (Inactive at 10 mcg./ml. (highest concentration tested))	
O=C(Nc1cccc(Cl)c1)c1ccc(Cl)cc1 [Compound C30]	> 20		5.0 µg/mL	
O=C(Nc1ccc(Cl)c(Cl)c1)c1ccc(Cl)cc1 [Compound C31]	> 20		10.0 µg/mL	
O=C(Nc1cc(Cl)cc(Cl)c1)c1ccc(Cl)cc1 [Compound C32]	> 20		10.0 µg/mL	
O=C(Nc1ccc(Cl)c(Cl)c1)c1ccc(Cl)c(Cl)c1 [Compound C35]	> 10		B (Inactive at 10 mcg./ml. (highest concentration tested))	
O=C(Nc1cc(Cl)cc(Cl)c1)c1ccc(Cl)c(Cl)c1 [Compound C36]	> 10		B (Inactive at 10 mcg./ml. (highest concentration tested))	
O=C(Nc1ccc(Cl)c(Cl)c1)c1ccc(Br)cc1 [Compound C37]	10 (≈ 29 µM)		20.0 µg/mL	

The next lines start with results.

MIC [1] [µg/mL]	solubility in alcohol solvents [2]	SMILES	Compound Activity With Soap: minimum concentration where S. aureus growth is completely inhibited [1]	LD50 [3] [mg/kg]
> 20		O=C(Nc1cc(C(F)(F)F)cc(C(F)(F)F)c1)c1ccc(F)cc1 [Compound C27]	10.0 µg/mL	
> 10		O=C(Nc1ccc(Cl)cc1)c1ccc(Cl)c(Cl)c1 [Compound C33]	B (Inactive at 10 mcg./ml. (highest concentration tested))	
> 20		O=C(Nc1cccc(Cl)c1)c1ccc(Cl)c(Cl)c1 [Compound C34]	A (Inactive at 20 mcg./ml. (highest concentration tested))	
> 20		O=C(Nc1ccc(Cl)c(Cl)c1)c1ccc(C(F)(F)F)cc1 [Compound C38]	10.0 µg/mL	
> 20		CC(C)(C)c1ccc(C(=O)Nc2cccc(C(F)(F)F)c2)cc1 [Compound C39]	5.0 µg/mL	

From patent US3981814A, “Bacteriostatic substituted benzanilide compositions and methods for their use” (Givaudan Corporation, priority 1975, dated 1976)
